Results reported in PubChem BioAssay (NCI).
Values joined by “and” are separate entries in the source; they are usually repeats but may differ in a detail not shown here. Identical values can stand only once.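 Five compound concentrations were applied to cells in 96-well plates for 48 hours; endpoints were derived by simple linear interpolation of the resulting dose-response curve. GI50 = concentration required for 50% inhibition of growth. TGI marks complete inhibition of growth.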

Tests used:
Assay in all cases: NCI anticancer screen, dose series, 48 h
[1] = system: SK-MEL-5 melanoma
[2] = system: SK-MEL-28 melanoma
[3] = system: COLO 205 colon
[4] = system: UACC-62 melanoma
[5] = system: SNB-75 CNS
[6] = system: SW-620 colon
[7] = system: SF-295 CNS
[8] = system: HOP-92 NSCLC
[9] = system: A498 renal
[10] = system: OVCAR-8 ovarian

Row | SMILES | TGI [1] | TGI [2] | TGI [3] | TGI [4] | TGI [5] | TGI [6] | TGI [7] | TGI [8] | TGI [9] | TGI [10] | GI50 [1] | GI50 [2] | GI50 [3] | GI50 [4] | GI50 [5] | GI50 [6] | GI50 [7] | GI50 [8] | GI50 [9] | GI50 [10]
1 | CS(=O)(=O)c1cc(=O)c2ccccc2s1 | 28.5 µM | 7.5 µM | 3.26 µM | 27.3 µM | 31 µM | 3.4 µM | 24.8 µM | 3.71 µM | 31.4 µM | 6.22 µM | – | – | – | – | – | – | – | – | – | –
2 | CCCCCN(CCCCC)CC(O)c1ccc(Cl)c2ccccc12 (centres undefined) | 20.8 µM | 24.4 µM | 16.5 µM | 22.2 µM | 35.8 µM | 13.6 µM | 26.3 µM | 14 µM | 29.3 µM | 36.6 µM | 8.39 µM | 11.2 µM | 3.6 µM | 6.25 µM | 11.7 µM | 2.77 µM | 3.99 µM | 0.974 µM | 10.3 µM | 16.6 µM
3 | C=C1CC[C@@H]2[C@](C)(COC(C)=O)[C@H](OC(C)=O)CC[C@@]2(C)[C@@H]1CC(Nc1ccc(S(=O)(=O)Nc2ncccn2)cc1)C1=CCOC1=O (some centres undefined) | 3.85 µM | 3.24 µM | 3.8 µM | 2.56 µM | 3.23 µM | 2.25 µM | 18.7 µM | 8.85 µM | 24.7 µM | 3.55 µM | 1.9 µM | 1.69 µM | 1.78 µM | 1.11 µM | 1.27 µM | 0.864 µM | 6.07 µM | 3.1 µM | 12.3 µM | 1.48 µM
4 | Fc1ccc(-c2nn3ncccc3c2-c2ccnc(Nc3ccc4c(c3)OCCO4)n2)cc1 | 9.51 µM | > 25 µM | > 25 µM | 9.12 µM | > 25 µM | > 18.9 µM | 18.6 µM | 18.8 µM | 17.1 µM | > 25 µM | 3.99 µM | 8.64 µM | 1.42 µM | 3.97 µM | – | 5.82 µM | 6.35 µM | 2.61 µM | 4.04 µM | 6.15 µM
5 | Nc1nc(-c2cccc(Cl)c2)c(-c2ccc3ncccc3n2)s1 | > 25 µM | > 25 µM | > 25 µM | > 25 µM | > 25 µM | > 25 µM | > 25 µM | > 25 µM | > 25 µM | > 25 µM | > 19.6 µM | > 25 µM | > 25 µM | > 25 µM | > 25 µM | > 25 µM | > 25 µM | > 24 µM | 8.4 µM | > 25 µM
6 | CO[C@H]1C=C[C@@]23c4cc5c(cc4CO[C@]2(O)CN(C)[C@H]3C1)OCO5 | > 100 µM | > 100 µM | > 100 µM | > 100 µM | > 100 µM | > 100 µM | > 100 µM | > 100 µM | > 100 µM | > 100 µM | – | – | – | – | – | – | – | – | – | –
7 | COc1ccc(-c2nnc(COc3ccc(NC(=O)Nc4ccc(Cl)c(C(F)(F)F)c4)cc3F)o2)cc1 | 5.36 µM | 54.6 µM | 5.06 µM | 16.4 µM | 8.36 µM | 27.2 µM | 9.06 µM | 5.45 µM | 20 µM | 15.8 µM | 2.1 µM | 5.27 µM | 2.02 µM | 3.12 µM | 1.48 µM | 3.42 µM | 2.48 µM | 1.87 µM | 3.19 µM | 3.12 µM
8 | CC(C)(C)c1cc(NC(=O)Cc2ccc(-c3cnc4cc(-c5cnn(CCN6CCOCC6)c5)ccc4n3)cc2)no1 | 50 µM and 11.3 µM and > 0.95 µM | 50 µM and > 100 µM and > 3 µM | 50 µM and > 3 µM | 50 µM and > 100 µM and > 3 µM | 4.39 µM and 38.4 µM and > 3 µM | 9.2 µM and 67.1 µM and > 1.25 µM | 50 µM and > 100 µM and > 3 µM | 2.92 µM and > 3 µM | 0.425 µM and 0.0791 µM | 50 µM and > 100 µM and > 3 µM | 0.612 µM and 0.674 µM and 0.232 µM | 0.885 µM and 0.826 µM and 0.139 µM | 0.836 µM and 0.0931 µM | 0.26 µM and 0.364 µM and 0.0552 µM | – | 0.22 µM and 0.414 µM and 0.0878 µM | 0.436 µM and 0.461 µM and 0.0839 µM | 0.194 µM and 0.0913 µM | 0.0663 µM and 0.0152 µM | 0.481 µM and 0.507 µM and 0.121 µM
9 | Cn1cnc([N+](=O)[O-])c1[Se]c1nc(N)nc2c1ncn2C1OC(CO)C(O)C1O (centres undefined) | > 100 µM | > 100 µM | > 100 µM | > 100 µM | > 100 µM | > 100 µM | > 100 µM | > 100 µM | > 100 µM | > 100 µM | – | – | – | – | – | – | – | – | – | –
10 | COc1ccccc1Cn1cc2c(c1-c1ccccc1)CCc1cnoc1-2 | 11.2 µM | > 100 µM | 7.62 µM | > 100 µM | 7.34 µM | > 100 µM | 9.52 µM | 9.42 µM | 7.18 µM | > 100 µM | 1.93 µM | 27 µM | 2.56 µM | 2.34 µM | 2.42 µM | 1.83 µM | 1.09 µM | 1.36 µM | 1.1 µM | 6.22 µM
11 | Cc1ccc(NC(=O)c2sc3nc(C)c(C(O)c4ccccc4)cc3c2N)cc1 (centres undefined) | > 41.8 µM | > 100 µM | > 21.8 µM | > 100 µM | 13.6 µM | 52.7 µM | 4.03 µM | 20.4 µM | 1.04 µM | > 100 µM | 0.417 µM | 0.772 µM | 0.573 µM | 0.621 µM | 0.245 µM | 0.355 µM | 0.339 µM | 0.857 µM | 0.233 µM | 0.611 µM
12 | O=C(Nc1ccc(Cl)cc1Cl)C(=O)C(C(=O)c1ccncc1)C1OC(=O)c2ccccc21 (centres undefined) | > 100 µM | > 100 µM | > 100 µM | > 100 µM | > 100 µM | > 100 µM | > 100 µM | > 100 µM | > 100 µM | > 100 µM | – | – | – | – | – | – | – | – | – | –
13 | COC(=O)c1c(C)[nH]c(/C=C2\N=C(c3ccc[nH]3)C=C2OC)c1C | 0.665 µM | 2.36 µM | 1.6 µM | 0.921 µM | 3.24 µM | – | 3.44 µM | 0.711 µM | 10.7 µM | – | 0.225 µM | 0.685 µM | 0.288 µM | 0.287 µM | 0.399 µM | 0.0365 µM | 0.983 µM | 0.169 µM | 2.64 µM | 0.229 µM
14 | CC(C)(C)c1ccc(O)c(CN(Cc2cc(C(C)(C)C)ccc2O)c2ccccc2)c1 | 28.5 µM | 32.4 µM | 30.9 µM | 28.4 µM | 52.4 µM | 37.6 µM | 37.4 µM | 30.7 µM | 28.1 µM | 37.5 µM | – | – | – | – | – | – | – | – | – | –
15 | CON(C)C(=O)N1N=C(c2cc(F)ccc2F)SC1(CCCN)c1ccccc1 (centres undefined) | 12.2 µM and 12.6 µM | 23.8 µM and 23.1 µM | – | 18.8 µM and 16.2 µM | 16.2 µM and 15 µM | 15.6 µM and 16 µM | 1.1 µM | 10.2 µM and 15 µM | 13.5 µM and 13.4 µM | 18.9 µM and 19.8 µM | < 0.01 µM | 10.6 µM and 2.97 µM | < 0.01 µM | 0.0618 µM and < 0.01 µM | 0.0531 µM and < 0.01 µM | < 0.01 µM | 0.0191 µM and < 0.01 µM | – | 0.0452 µM and < 0.01 µM | 0.0266 µM and < 0.01 µM
16 | CSc1nc2cc(S(=O)(=O)N3CCCCC3)ccc2s1 | > 100 µM | > 100 µM | > 100 µM | > 100 µM | > 100 µM | > 100 µM | > 100 µM | > 100 µM | > 100 µM | > 100 µM | – | – | – | – | – | – | – | – | – | –
17 | CC(C)c1ccc(C(c2ccc(OCC(=O)O)cc2)c2ccc(C(C)C)cc(=O)c2O)c(O)c(=O)c1 | 9.14 µM | 24.5 µM | > 100 µM | 20.7 µM | 16.2 µM | > 100 µM | 55.1 µM | 0.956 µM | 69.5 µM | 58.3 µM | – | – | – | – | – | – | – | – | – | –
18 | CC[C@H](C)[C@H]1O[C@]2(C=C[C@@H]1C)C[C@@H]1C[C@@H](C/C=C(\C)[C@@H](O[C@H]3C[C@H](OC)[C@@H](O[C@H]4C[C@H](OC)[C@@H](NC)[C@H](C)O4)[C@H](C)O3)[C@@H](C)/C=C/C=C3\CO[C@@H]4[C@H](O)C(C)=C[C@@H](C(=O)O1)[C@]34O)O2 | 3.2 µM | 3.47 µM | 3.39 µM | 4.28 µM | 8.44 µM | 4.74 µM | 8.17 µM | 9.67 µM | 11.6 µM | 14.5 µM | 1.8 µM | 1.73 µM | 1.77 µM | 1.99 µM | 1.93 µM | 2.14 µM | 2.6 µM | 2.12 µM | 2.68 µM | 3.84 µM
19 | COc1ccc(/C(Cl)=C(\C=O)c2ccc([N+](=O)[O-])cc2)cc1 | 39.9 µM | > 93.8 µM | 40.4 µM | 33.1 µM | 30.9 µM | > 49.1 µM | 34.6 µM | 31.2 µM | 74.1 µM | 38.3 µM | – | – | – | – | – | – | – | – | – | –
20 | C/C(=N\Nc1ccc(Cl)cn1)c1ccccn1 | 5.48 µM | > 100 µM | 36.7 µM | > 100 µM | > 76.2 µM | > 100 µM | 5.18 µM | 33.9 µM | 1.05 µM | > 100 µM | 0.343 µM | 0.25 µM | 0.0227 µM | 0.172 µM | 0.208 µM | 0.0622 µM | 0.262 µM | 0.134 µM | 0.174 µM | 0.0704 µM
21 | Cc1ccc2c3c(c(=O)[nH]c2c1)C1(C(C#N)=C(N)O3)c2cc(Br)ccc2-c2ccc(Br)cc21 | 24.1 µM | 13.4 µM | 3.82 µM | 11.3 µM | 3.16 µM | 4.22 µM | 3.71 µM | 3.15 µM | 3.61 µM | 8.62 µM | 10.2 µM | 3.48 µM | 1.87 µM | 2.19 µM | 1.51 µM | 1.86 µM | 1.82 µM | 1.38 µM | 1.44 µM | 3.02 µM
